Data as given in patent US11052060B2, “Compounds and methods for treating autoimmunity” (ImmunoMolecular Therapeutics, INC., priority 2018, dated 2021).

Key:
insulin/DQ8 = insulin/DQ8 (Homo sapiens, UniProt P01909+P01920); assay: Inhibition of DQ8 antigen presentation to insulin-responsive CD4 TCR transductant (Clone 5), secreted IL-2 by ELISA; assay type: cell-based; settings: for IC50 / Clone 5 IC50 (insulin/DQ8): Clone 5 TCR transductant, HLA-DQ8 antigen presenting cells with insulin peptide, secreted IL-2; for inhibition of an insulin-responsive CD4 T cell receptor (TCR) transductant: FIG. 3A / FIG. 4A, secreted IL-2 by ELISA, result in words
Description: (§1) Inhibition of DQ8 antigen presentation by compounds of this disclosure was tested and compared in vitro. HLA-DQ8 antigen presenting cells were cultured with a fixed concentration of peptide and a concentration of one of the tested compounds for 4 hours. TCR transductants were then added to each culture condition and cultured overnight. Secreted IL-2 from the TCR transductant was measured by ELISA for each condition.
(§2) In these figures, 0 represents the TCR transductant response to peptide without the addition of the test compound.

α-gliadin/DQ8 = α-gliadin/DQ8 (Homo sapiens, UniProt P01909+P01920); assay: Inhibition of DQ8 antigen presentation to gliadin-responsive CD4 TCR transductant (489), secreted IL-2 by ELISA; assay type: cell-based; settings: for IC50 / 489 IC50 (α-gliadin/DQ8): 489 TCR transductant, HLA-DQ8 antigen presenting cells with α-gliadin peptide, secreted IL-2; for inhibition of gliadin-responsive CD4 TCR: FIG. 3B / FIG. 4B, secreted IL-2 by ELISA, result in words
Description: as §1, §2

Sequence of insulin/DQ8 (P01920 33-261 limits assumed, other chains not shown): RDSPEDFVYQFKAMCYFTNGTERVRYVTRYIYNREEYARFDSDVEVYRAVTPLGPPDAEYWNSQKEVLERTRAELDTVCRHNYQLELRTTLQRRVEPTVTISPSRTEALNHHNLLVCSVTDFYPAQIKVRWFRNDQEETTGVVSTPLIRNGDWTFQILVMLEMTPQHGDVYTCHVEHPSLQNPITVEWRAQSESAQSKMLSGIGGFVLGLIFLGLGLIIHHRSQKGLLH
Sequence of α-gliadin/DQ8 (P01920 33-261 limits assumed, other chains not shown): as above

Row | Compound | IC50 (insulin/DQ8) [µM] | IC50 (α-gliadin/DQ8) [µM] | Clone 5 IC50 (insulin/DQ8) (insulin/DQ8) | 489 IC50 (α-gliadin/DQ8) (α-gliadin/DQ8) | inhibition of an insulin-responsive CD4 T cell receptor (TCR) transductant (insulin/DQ8) | inhibition of gliadin-responsive CD4 TCR (α-gliadin/DQ8)
1 | CCOC(=O)C(C)(N)Cc1ccc(O)c(O)c1 (stereo not drawn) [α-methyldopa ethyl ester, Ethyl-2-amino-3-(3,4 dihydroxyphenyl)-2-methylpropanoate] | 5.8 | 7.8 |  |  |  | 
2 | CC(N)[C@H](O)c1ccc(O)c(O)c1 (stereo in doubt) [α-methylnorepinephrine, 4-(2-amino-1-hydroxypropyl)benzene-1,2-diol] |  |  | No inhibition | No inhibition |  | 
3 | CC(N)(Cc1ccccc1)C(=O)O (stereo not drawn) [α-methylphenylalanine, 2-amino-2-methyl-3-phenylpropanoic acid] |  |  | No inhibition | No inhibition |  | 
4 | CC(C)(C)C(N)(Cc1ccc(O)c(O)c1)C(=O)O.Cl (centres unmarked) [Compound F994-0666] |  |  |  |  | concentration-dependent inhibition | concentration-dependent inhibition
5 | C[C@@](N)(Cc1ccc(O)c(O)c1)C(=O)O (stereo in doubt) [α-methyldopa, 2-amino-3-(3,4-dihydroxyphenyl)-2-methylpropanoic acid] | 3.4 | 17.7 |  |  | concentration-dependent inhibition | concentration-dependent inhibition
6 | CC(N)(Cc1ccc(O)cc1)C(=O)O (stereo not drawn) [α-methyltyrosine, 2-amino-3-(4-hydroxyphenyl)-2-methylpropanoic acid] |  |  | No inhibition | No inhibition |  | 
